Data from ChEMBL document CHEMBL1697781, “Assessment of the health effects of chemicals in humans: II. Construction of an adverse effects database for QSAR modeling” (Curr Drug Discov Technol, 2004).

Key:
Conditions in all cases: human; call rule not given here
Hepatotoxicity [1] = assay: FDA HLAED, liver enzyme composite activity
Hepatotoxicity [2] = assay: FDA HLAED, gamma-glutamyl transferase (GGT) increase
Hepatotoxicity [3] = assay: FDA HLAED, serum glutamic oxaloacetic transaminase (SGOT) increase
Hepatotoxicity [4] = assay: FDA HLAED, serum glutamic pyruvic transaminase (SGPT) increase
Hepatotoxicity [5] = assay: FDA HLAED, lactate dehydrogenase (LDH) increase
Hepatotoxicity [6] = assay: FDA HLAED, alkaline phosphatase increase
Throughout, for GGT Increase - Index Value: reference of the scale not given here.
Throughout, for LDH Increase - Index Value: reference of the scale not given here.

Row | Compound | Composite Activity - Active (Hepatotoxicity [1]) | Composite Activity - Marginal (Hepatotoxicity [1]) | Composite Activity - Score (Hepatotoxicity [1]) | GGT Increase - Activity Score (Hepatotoxicity [2]) | GGT Increase - Index Value (Hepatotoxicity [2]) | GGT Increase - Number of Reports (Hepatotoxicity [2]) | SGOT Increase - Activity Score (Hepatotoxicity [3]) | SGOT Increase - Index Value (Hepatotoxicity [3]) | SGOT Increase - Number of Reports (Hepatotoxicity [3]) | SGPT Increase - Activity Score (Hepatotoxicity [4]) | SGPT Increase - Index Value (Hepatotoxicity [4]) | SGPT Increase - Number of Reports (Hepatotoxicity [4]) | LDH Increase - Activity Score (Hepatotoxicity [5]) | LDH Increase - Index Value (Hepatotoxicity [5]) | LDH Increase - Number of Reports (Hepatotoxicity [5]) | Alkaline Phosphatase Increase - Activity Score (Hepatotoxicity [6]) | Alkaline Phosphatase Increase - Index Value (Hepatotoxicity [6]) | Alkaline Phosphatase Increase - Number of Reports (Hepatotoxicity [6])
1 | CC(c1cc2ccccc2s1)N(O)C(N)=O (configuration not stated) [ZILEUTON] | 3 | 0 | Active | Inactive | 5.9 | < 4 | Active | 47.5 | >= 4 | Active | 65.3 | >= 4 | Inactive | 11.9 | < 4 | Active | 29.7 | >= 4
2 | Cc1ccc(-c2nc3ccc(C)cn3c2CC(=O)N(C)C)cc1 [ZOLPIDEM] | 0 | 4 | Marginally Active | Marginally Active | 3 | >= 4 | Marginally Active | 3.8 | >= 4 | Marginally Active | 3.9 | >= 4 | Inactive | 0.7 | >= 4 | Marginally Active | 3 | >= 4
3 | Cc1cc(CC(=O)O)n(C)c1C(=O)c1ccc(Cl)cc1 [ZOMEPIRAC] | 0 | 0 | Inactive | Inactive | 0 | < 4 | Inactive | 1.1 | >= 4 | Inactive | 0.7 | >= 4 | Inactive | 0.7 | >= 4 | Inactive | 1.1 | >= 4
4 | NYSTATIN | 0 | 0 | Inactive | Inactive | 0 | < 4 | Inactive | 0 | < 4 | Inactive | 0 | < 4 | Inactive | 0 | < 4 | Inactive | 0.3 | < 4
